We go through seven molecules from PubChem BioAssay (NCI).

Each structure is given as a SMILES string.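 Exposure lasted 48 hours, with cells grown in 96-well plates and compounds tested at five concentrations. GI50 marks 50% less growth. TGI: total growth inhibition.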

Holding throughout (test): inhibition of tumour cell growth, NCI panel, 48 h
In assay [1] the test system is HT29 colon.
Assay [2] concerns DU-145 prostate.
Assay [3] relates to SNB-19 CNS.
Assay [4] deals with NCI-H23 lung.
Assay [5] relates to 786-0 renal.
Assay [6] relates to K-562 leukemia.
Assay [7] has as its system MOLT-4 leukemia.
Assay [8] concerns HCC-2998 colon.
The test system of assay [9] is PC-3 prostate.
Assay [10] deals with SNB-75 CNS.

As for `COc1cc([N+](=O)[O-])cc2c3c(n(C)c12)[C@@]1(C)CCC2c4ccc(OCc5ccccc5)cc4CCC2C1C3` (some centres not stated), the GI50 in assay [1] is 17.7 µM; in [2], more than 100 µM; in [3] it was 46.5 µM; in assay [4] it was 68.8 µM; in [5], more than 100 µM; in assay [6] it was 62.5 µM. Also, the GI50 is more than 100 µM in assay [7], 47.9 µM in assay [8], more than 100 µM in [9] and 23.9 µM in assay [10]. The TGI is 42.8 µM in [1]; more than 100 µM in assay [2]; more than 100 µM in [3]; more than 100 µM in assay [4]; more than 100 µM in assay [5]; more than 100 µM in [6]. Further, the TGI in [7] is more than 100 µM; in assay [8] it was more than 100 µM; in assay [9], more than 100 µM; in [10], 63.9 µM.
`CC(=O)OC[C@]1(C)C=C2C(=O)[C@](C)(O)C3(CC3)C(C)=C2[C@H]1O`: the GI50 was 0.0339 µM in assay [1]; 0.036 µM in assay [2]; 0.193 µM in assay [3]; 0.0633 µM in assay [4]; 0.0411 µM in assay [5]; 0.131 µM in assay [6]. Besides, the GI50 was 0.0629 µM in assay [7], 0.0985 µM in assay [8], 0.135 µM in assay [9] and 0.152 µM in assay [10]. Moreover, the TGI was more than 100 µM in [1]; 1.28 µM in assay [3]; 0.367 µM in assay [4]; 0.35 µM in [5]; more than 100 µM in [6]; more than 100 µM in assay [7]. Moreover, the TGI in assay [8] was found to be 0.353 µM; in assay [9] it was 1.29 µM; in assay [10], 0.35 µM.
As for `Oc1ccc2ccccc2c1N=Nc1nccs1`, the GI50 in assay [1] was 1.72 µM; in [2] it was 2.17 µM; in assay [4] it was 5.83 µM; in [5] it was 0.476 µM; in assay [6] it was 0.438 µM; in [7], 0.186 µM. For the same molecule, the GI50 in assay [8] is 3.61 µM; in assay [9], 1.13 µM; in [10], 1.46 µM. Besides, the TGI was 23.3 µM in assay [1]; 16 µM in assay [2]; more than 100 µM in assay [3]; 27.8 µM in [4]; more than 41.7 µM in assay [5]; more than 100 µM in assay [6]. Besides, the TGI was more than 46.9 µM in assay [7], 33.2 µM in [8], more than 66.1 µM in assay [9] and 24.7 µM in [10].
Regarding `CC(C)c1nc(CN(C)C(=O)N[C@H](C(=O)N[C@@H](Cc2ccccc2)C[C@H](O)[C@H](Cc2ccccc2)NC(=O)OCc2cncs2)C(C)C)cs1`, the GI50 is 19.3 µM in assay [1]; 1.42 µM in assay [2]; 26.4 µM in [3]; 42.6 µM in [4]; 24.7 µM in [5]; 26.6 µM in assay [6]. The GI50 in assay [7] was 7.54 µM; in assay [8], 22.2 µM; in assay [9], 20.8 µM; in [10], 20.4 µM. Besides, the TGI in assay [1] is 50.6 µM; in assay [3] it was more than 89 µM; in assay [4], more than 100 µM; in assay [5] it was 53.5 µM; in [6] it was 92.1 µM; in [7], 27.5 µM. Further, the values for the TGI in [8], in [9] and in assay [10] were 45.2 µM, 79.2 µM and 54.3 µM, respectively.
Consider `C=C1C(=O)O[C@H]2[C@H]1CC/C(Cn1cc(-c3ccc(OC)cc3)nn1)=C\CC[C@@]1(C)O[C@@H]21`, for which the GI50 in [1] was 1.23 µM; in [2], 1.11 µM; in assay [3], 6.92 µM; in assay [4] it was 2.06 µM; in assay [5], 1.24 µM; in assay [6], 1.3 µM. Also, the GI50 in [7] was 1.13 µM; in assay [8], 1.98 µM; in assay [9], 9.35 µM; in assay [10] it was 1.47 µM. Further, the TGI was 2.86 µM in [1]; 2.32 µM in assay [2]; 21.4 µM in [3]; 4.58 µM in assay [4]; 2.65 µM in [5]; 6.87 µM in [6]. The TGI in assay [7] stood at 3.66 µM; in assay [8] it was 3.64 µM; in assay [9], 22.2 µM; in assay [10] it was 3.28 µM.
Consider `Cc1ccc(NC(=O)c2cccc(N(C)C)c2)cc1NC(=O)c1ccc(O)cc1`, for which the GI50 in assay [1] was more than 57.3 µM; in assay [2] it was 62.6 µM; in assay [3], 51.1 µM; in assay [4], more than 61.9 µM; in [5], more than 71.5 µM; in assay [6], 42.7 µM. For the same molecule, the GI50 in [7] was more than 72.4 µM; in assay [8], 74.8 µM; in assay [9] it was more than 61.7 µM; in [10] it was 26.3 µM. For the same molecule, the TGI in assay [1], in assay [2], in assay [3], in assay [4], in [5] and in assay [6] was more than 100 µM each time. Also, the TGI in assay [7] was more than 100 µM; in assay [8] it was more than 100 µM; in assay [9], more than 100 µM; in [10] it was more than 81.8 µM.
In the case of `CC1(C)OC2[C@@H](CNC(=O)NC(=O)NC(=O)CI)O[C@@H](n3cnc4c(NC(=O)Nc5ccccc5)ncnc43)[C@H]2O1` (some centres not stated), the GI50 was 3.96 µM in [1]; 14.5 µM in assay [2]; 27.1 µM in assay [3]; 7.46 µM in assay [4]; 7.47 µM in [5]; 2.3 µM in assay [6]. For the same molecule, the GI50 in assay [7] was 1.86 µM; in assay [8] it was 9.29 µM; in [9], 8 µM; in assay [10] it was 6.62 µM. In addition, the TGI in assay [1] is 12.2 µM; in [2] it was more than 50 µM; in assay [3], more than 50 µM; in assay [4], 16.7 µM; in [5], 14.4 µM; in [6] it was 10.5 µM. Further, the TGI in assay [7] was found to be 9.28 µM; in assay [8] it was 19.7 µM; in assay [9] it was 16.6 µM; in assay [10], 13.3 µM.
